What was measured:
exudation = assay: Anti-exudation activity (air pouch, croton oil); format: in vivo, rat; details: Rattus norvegicus, po, 144 h, 5 days, read-out: I.R. against exudation
Summary of the method: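 Rats, 6 per group, given subcutaneous dorsal air pouch injected with 0.5 ml sesame oil containing 1% croton oil. Compounds dosed orally in distilled water at 1000 mg/kg/day for five days; pouch exudate volume measured on day 6 and expressed as percent inhibition of exudation.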

in vivo = details: mouse, in vivo, po, mice, 7 days observation, read-out: LD50, acute oral toxicity
total cholesterol = assay: Anti-hyperlipemia activity, total cholesterol in blood; format: in vivo, rabbit (Japanese white male); details: oral, 300 mg/kg once; for Reduction of cholesterol level after 3 hrs.: negative = raising
Summary of the method: (§1)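 Male Japanese white rabbits fed 1% cholesterol diet for 3 months received compound once orally at 300 mg/kg in water. Ear-vein blood: cholesterol by enzymatic method, beta-lipoprotein by colorimetry; values are change from predose at 3 or 6 h.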

beta-lipoprotein = assay: Anti-hyperlipemia activity, beta-lipoprotein in blood; format: in vivo, rabbit (Japanese white male); details: oral, 300 mg/kg once
Summary of the method: as §1

acetic acid writhing = assay: Analgetic activity against chemical stimulation of acetic acid (writhing); format: in vivo, mouse (ICR female); details: Mus musculus, po, 30 min before 0.6% acetic acid, read-out: I.R. of writhing
Text: Rate of inhibition (I.R.) (%)=(1-T/C)×100
T represents the average number of writhing of the group of mice administered with the present compound and injected with acetic acid, and C represents the average number of writhing of the group of mice only injected with acetic acid (control).

blood pressure = assay: Anti-hypertension activity (reduction of blood pressure); format: in vivo, rat (spontaneous hypertension); details: oral, 300 mg/kg
Summary of the method: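 Spontaneously hypertensive rats dosed orally at 300 mg/kg in distilled water. Blood pressure measured at 3 and 6 h. Activity taken as change from the value just before dosing.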

cotton pellet granuloma = assay: Anti-granuloma activity (cotton pellet); format: in vivo, rat; details: Rattus norvegicus, po, 192 h, 7 days, read-out: I.R. against cotton pellet edema
Summary of the method: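 Rats (6/group) implanted dorsally with two 30±1 mg cotton pellets; compounds given orally in distilled water at 1000 mg/kg/day once daily for 7 days. Granuloma excised on day 8 and dry weight measured; value is % inhibition of granuloma proliferation.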

[1] = tested on: pseudo-escaping reaction to tail pressure; assay: Analgetic activity against mechanical stimulation of pressure; format: in vivo, mouse (ICR female); details: oral, 1000 mg/kg
level of blood sugar = assay: Anti-hyperglycemia activity (reduction of blood sugar level); format: in vivo, rat (Wistar, streptozotocin); details: oral, 300 mg/kg
Summary of the method: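 Streptozotocin-diabetic Wistar rats (60 mg/kg i.p., relapsed hyperglycemia after insulin) given compounds orally at 300 mg/kg in distilled water. Blood sugar measured in samples taken 3 and 6 h post-dose.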

Sarcoma-180 = assay: Anti-tumour activity against Sarcoma-180; format: in vivo, mouse (ICR-JCL); details: Mus musculus, Sarcoma-180, po, 600 h, 10 times every other day, tumour weight on 25th day, read-out: Antitumour activity, inhibiting rate (I.R.)
Summary of the method: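 ICR-JCL mice were given 1×10^6 Sarcoma-180 cells axillary; from 24 hours, compounds in saline were dosed orally at 500 mg/kg/time, 10 times every other day. Tumour nodes were weighed on day 25; inhibition rate = (1-T/C)×100(%) versus untreated tumour-bearing mice.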

[2] = tested on: pyrexia (Saccharomyces cerevisiae); assay: Anti-pyrexia activity (yeast-induced); format: in vivo; details: Rattus norvegicus, oral, read-out: Rate of inhibiting pyrexia (I.R.)
Summary of the method: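 Rats (n=6/group) received subcutaneous 20% Saccharomyces cerevisiae suspension, fasted 10 h, then dosed orally with 1000 mg/kg compound in distilled water. Rectal temperature was tracked at set intervals and the lowest value taken; inhibition rate computed against non-yeast and yeast-only control temperatures.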

carrageenin edema = assay: Anti-Carrageenin edema activity; format: in vivo, rat; details: Rattus norvegicus, po, 1000 mg/kg once, read-out: I.R. against carrageenin edema
Summary of the method: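 Rats (10 per group) given compound orally once at 1000 mg/kg in distilled water, then 0.1 ml 1% carrageenin injected into right hind foot pad. Foot pad thickness measured at intervals; inhibition rate (%) = (1−T/C)×100 versus carrageenin-only animals.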

| SMILES | inhibition in vivo at 1000 mg/kg/day (exudation) [%] | LD50 at 168 h (in vivo) [mg/kg] | Reduction of cholesterol level after 3 hrs. (total cholesterol) [mg/dL] | Reduction of cholesterol level after 6 hrs. (total cholesterol) [mg/dL] | Reduction of beta-lipoprotein level after 3 hrs. (beta-lipoprotein) [mg/dL] | Reduction of beta-lipoprotein level after 6 hrs. (beta-lipoprotein) [mg/dL] | inhibition in vivo at 1000 mg/kg (acetic acid writhing) [%] | Reduced level of blood pressure after 3 hrs. (blood pressure) [mm Hg] | Reduced level of blood pressure after 6 hrs. (blood pressure) [mm Hg] | inhibition in vivo at 1000 mg/kg/day (cotton pellet granuloma) [%] | Pseudo-escapting reaction pressure [1] [mmHg] | Pseudo-escapting reaction time [1] [s] | Reduced level of blood sugar after 3 hrs. (level of blood sugar) [mg/dL] | Reduced level of blood sugar after 6 hrs. (level of blood sugar) [mg/dL] | inhibition in vivo at 500 mg/kg (Sarcoma-180) [%] | inhibition in vivo at 1000 mg/kg [2] [%] | inhibition in vivo at 1000 mg/kg (carrageenin edema) [%] |
| --- | --- | --- | --- | --- | --- | --- | --- | --- | --- | --- | --- | --- | --- | --- | --- | --- | --- |
| O=C(OC1CCCCC1)c1ccc(NC2OC[C@@H](O)[C@H](O)[C@H]2O)cc1 (stereo partly drawn) [Compound 18, cyclohexyl p-aminobenzoate-N-D-xyloside] | 25 | > 15000 | 2 | 62 | 148 | 154 | 33 | 22 | 25 | 12.2 | 94 | 39 | 121 | 165 | 62 | 62 | 19.7 |
| O=C(OC1CCCCC1)c1ccc(NC2O[C@H](CO)[C@@H](O[C@@H]3O[C@H](CO)[C@@H](O)[C@H](O)[C@H]3O)[C@H](O)[C@H]2O)cc1 (stereo partly drawn) [Compound 19, cyclohexyl p-aminobenzoate-N-cellobioside] | 24.6 | 14600 | 3 | 41 | 135 | 148 | 24 | 20 | 21 | 5.5 | 82 | 37 | 101 | 113 | 51 | 37 | 5.5 |
| O=C(OC1CCCCC1)c1ccc(NC2O[C@H](CO)[C@@H](O[C@H]3O[C@H](CO)[C@@H](O[C@H]4O[C@H](CO)[C@@H](O)[C@H](O)[C@H]4O)[C@H](O)[C@H]3O)[C@H](O)[C@H]2O)cc1 (stereo partly drawn) [Compound 20, cyclohexyl p-aminobenzoate-N-maltotrioside] | 6.2 | 12500 | -2 | 50 | 125 | 128 | 17 | 22 | 24 | 21.7 | 75 | 35 | 113 | 120 | 37 | 23 | 8.6 |
| O=C(OCC1CCCCC1)c1ccccc1NC1O[C@H](CO)[C@@H](O[C@@H]2O[C@H](CO)[C@H](O)[C@H](O)[C@H]2O)[C@H](O)[C@H]1O (stereo partly drawn) [Compound 21, hexahydrobenzyl o-aminobenzoate-N-lactoside] | 20.7 | > 15000 | 4 | 43 | 96 | 109 | 28 | 16 | 17 | 7.2 | 84 | 40 | 95 | 102 | 44 | 28 | 19.4 |
| C[C@@H]1OC(Nc2cccc(C(=O)OCC3CCCCC3)c2)[C@@H](O)[C@H](O)[C@@H]1O (stereo partly drawn) [Compound 22, hexahydrobenzyl m-aminobenzoate-N-L-fucoside] | 7.7 | 10100 | 6 | 38 | 125 | 133 | 19 | 15 | 21 | 15.7 | 75 | 37 | 133 | 150 | 35 | 29 | 24.6 |
| O=C(OCC1CCCCC1)c1ccc(NC2OC[C@@H](O)[C@@H](O)[C@H]2O)cc1 (stereo partly drawn) [Compound 23, hexahydrobenzyl p-aminobenzoate-N-D-riboside] | 22.5 | 12600 | -1 | 40 | 141 | 143 | 23 | 21 | 22 | 7.3 | 80 | 39 | 120 | 126 | 47 | 15 | 4.9 |

Source: patent US4372948A, “Derivative of saccharide and physiologically active agent containing the same” (Kureha Kagaku Kogyo Kabushiki Kaisha, priority 1980, dated 1983)
